Like-named read-outs stand apart in the source and are kept apart here.
Key:
[1] = test system: Phosphorylation of ERK1/2 in A549 cells; assay: Phospho-ERK1/2 MSD assay in A549 cells; assay type: cell-based; details: read-out: p-ERK IC50 (2 h, A549; μM)
Protocol: (§1) Phospho-ERK1/2 MSD Assay:
(§2) MIA PaCa-2 (ATCC® CRL-1420™) and A549 (ATCC® CCL-185™) cells were cultured in RPMI 1640 Medium (ThermoFisher Scientific 11875093) containing 10% fetal bovine serum (ThermoFisher Scientific 16000044) and 1× penicillin-streptomycin-glutamine (ThermoFisher Scientific 10378016). Sixteen hours prior to compound treatment, MIA PaCa-2 or A549 cells were seeded in 96-well cell culture plates at a density of 25,000 cells/well and incubated at 37° C., 5% CO2. A compound dose-response titration was diluted in growth media, added to appropriate wells of a cell culture plate, and then incubated at 37° C., 5% CO2 for 2 or 4 hours (see Table 15). Following compound treatment, cells were stimulated with 10 ng/mL EGF (Roche 11376454001) for 10 min, washed with ice-cold Dulbecco's phosphate-buffered saline, no Ca2+ or Mg2+ (ThermoFisher Scientific 14190144), and then lysed in RIPA buffer (50 mM Tris-HCl pH 7.5, 1% Igepal, 0.5% sodium deoxycholate, 150 mM NaCl. and 0.5% sodium dodecyl sulfate) containing protease inhibitors (Roche 4693132001) and phosphatase inhibitors (Roche 4906837001). Phosphorylation of ERK1/2 in compound-treated lysates was assayed using Phospho-ERK1/2 Whole Cell Lysate kits (Meso Scale Discovery K151DWD) according to the manufacturer's protocol.

[2] = test system: Phosphorylation of ERK1/2 in MIA PaCa-2 cells; assay: Phospho-ERK1/2 MSD assay in MIA PaCa-2 cells; assay type: cell-based; details: read-out: p-ERK IC50 (2 h, MiaPaCa-2; μM)
Protocol: as §1
as §2, with “Sixteen” for “MIA PaCa-2 (ATCC® CRL-1420™) and A549 (ATCC® CCL-185™) cells were cultured in RPMI 1640 Medium (ThermoFisher Scientific 11875093) containing 10% fetal bovine serum (ThermoFisher Scientific 16000044) and 1× penicillin-streptomycin-glutamine (ThermoFisher Scientific 10378016). Sixteen”

[3] = biological target: GDP-bound KRAS protein (aa 1-169), containing both G12C and C118A amino acid substitutions (Homo sapiens (Human), UniProt P01116, C118A/G12C); assay: Coupled nucleotide exchange assay (SOS-mediated nucleotide exchange, AlphaScreen); assay type: biochemical; details: 5 min compound pre-incubation; for IC50: read-out: Coupled exchange IC50 (5 min; μM)
[4] = Homo sapiens, A549, 2 h, 2 h compound treatment, A549 cells, EGF stimulated
[5] = Homo sapiens, MIA PaCa-2, 2 h, 2 h compound treatment, MIA PaCa-2 cells, EGF stimulated
[6] = 2 h compound treatment, A549 cells, EGF stimulated
[7] = 2 h compound treatment, MIA PaCa-2 cells, EGF stimulated

GDP-bound KRAS protein (aa 1-169), containing both G12C and C118A amino acid substitutions, sequence (P01116 other isoform, or with tags, fused parts or gaps G12C/C118A): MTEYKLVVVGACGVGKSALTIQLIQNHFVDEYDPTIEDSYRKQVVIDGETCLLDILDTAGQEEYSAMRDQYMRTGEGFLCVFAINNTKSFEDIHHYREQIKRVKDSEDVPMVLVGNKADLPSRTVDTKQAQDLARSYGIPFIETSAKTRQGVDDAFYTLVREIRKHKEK

Row | SMILES | IC50 [1, 4] | IC50 [2, 5] | IC50 [1, 6] | IC50 [2, 7] | also measured
1 | [2H]C1([2H])CN(c2nc(=O)n(-c3c(C)ccnc3C(C)C)c3nc(-c4c(O)cccc4F)c(F)cc23)CC([2H])([2H])N1C(=O)C=C (atropisomer, axis not shown; (M)) [Example 72-20, (M)-6-Fluoro-7-(2-fluoro-6-hydroxy-phenyl)-1-(2-isopropyl-4-methyl-3-pyridyl)-4-(3,3,5,5-tetradeuterio-4-prop-2-enoyl-piperazin-1-yl)pyrido[2,3-d]pyrimidin-2-one] | > 7.5 µM | 0.223 µM |  |  | Coupled exchange IC50 (5 min; μM) [3]: 0.382 µM
2 | [2H]C1([2H])CN(C(=O)C=C)CC([2H])([2H])N1c1nc(=O)n(-c2c(C)ccnc2C(C)C)c2nc(-c3c(O)cccc3F)c(F)cc12 (atropisomer, axis not shown; (M)) [Example 72-21, (M)-6-Fluoro-7-(2-fluoro-6-hydroxy-phenyl)-1-(2-isopropyl-4-methyl-3-pyridyl)-4-(2,2,6,6-tetradeuterio-4-prop-2-enoyl-piperazin-1-yl)pyrido[2,3-d]pyrimidin-2-one] | > 7.5 µM | 0.306 µM |  |  | Coupled exchange IC50 (5 min; μM) [3]: 0.468 µM
3 | C=CC(=O)N1C[C@H](C)N(c2nc(=O)n(-c3c(C)ccnc3C(C)C)c3nc(-c4ccccc4C(C)C)c(Cl)cc23)C[C@H]1C (atropisomer, axis not shown; (M)) [Example 92-1, (M)-6-Chloro-4-[(2S,5R)-2,5-dimethyl-4-prop-2-enoyl-piperazin-1-yl]-1-(2-isopropyl-4-methyl-3-pyridyl)-7-(2-isopropylphenyl)pyrido[2,3-d]pyrimidin-2-one] |  |  | > 7.5 µM | 0.014 µM | IC50 [3]: 0.016 µM
4 | C=CC(=O)N1CCN(c2nc(=O)n(-c3c(C)ccnc3C(C)C)c3nc(-c4c(N)cccc4F)c(Cl)cc23)C[C@H]1C (atropisomer, axis not shown; (M)) [Example 92-2, (M)-7-(2-Amino-6-fluoro-phenyl)-6-chloro-1-(2-isopropyl-4-methyl-3-pyridyl)-4-[(3R)-3-methyl-4-prop-2-enoyl-piperazin-1-yl]pyrido[2,3-d]pyrimidin-2-one] |  |  | > 7.5 µM | 0.035 µM | IC50 [3]: 0.024 µM
5 | C=CC(=O)N1C[C@H](C)N(c2nc(=O)n(-c3c(C)ccnc3C(C)C)c3nc(-c4ccsc4C)c(Cl)cc23)C[C@H]1C (atropisomer, axis not shown; (M)) [Example 92-3, (M)-6-Chloro-4-[(2S,5R)-2,5-dimethyl-4-prop-2-enoyl-piperazin-1-yl]-1-(2-isopropyl-4-methyl-3-pyridyl)-7-(2-methyl-3-thienyl)pyrido[2,3-d]pyrimidin-2-one] | > 7.5 µM | 0.094 µM |  |  | IC50 [3]: 0.095 µM
6 | C=CC(=O)N1C[C@H](C)N(c2nc(=O)n(-c3c(N(C)C)ccnc3C(C)C)c3nc(-c4c(N)cccc4F)c(Cl)cc23)C[C@H]1C [Example 55-54, 7-(2-Amino-6-fluoro-phenyl)-6-chloro-1-[4-(dimethylamino)-2-isopropyl-3-pyridyl]-4-[(2S,5R)-2,5-dimethyl-4-prop-2-enoyl-piperazin-1-yl]pyrido[2,3-d]pyrimidin-2-one] | > 7.5 µM |  |  | 0.016 µM | 
7 | C=CC(=O)N1C[C@H](C)N(c2nc(=O)n(-c3c(N(C)C)ccnc3C(C)C)c3nc(-c4c(N)cccc4F)c(Cl)cc23)C[C@H]1C [Example 55-56, 7-(2-Amino-6-fluoro-phenyl)-6-chloro-1-[4-(dimethylamino)-2-isopropyl-3-pyridyl]-4-[(2S,5R)-2,5-dimethyl-4-prop-2-enoyl-piperazin-1-yl]pyrido[2,3-d]pyrimidin-2-one] |  |  | > 7.5 µM | 0.01 µM | 
8 | C=CC(=O)N1C[C@H](C)N(c2nc(=O)n(-c3c(N(C)C)ccnc3C(C)C)c3nc(-c4c(N)cccc4F)c(Cl)cc23)C[C@H]1C [Example 55-57, 7-(2-Amino-6-fluoro-phenyl)-6-chloro-1-[4-(dimethylamino)-2-isopropyl-3-pyridyl]-4-[(2S,5R)-2,5-dimethyl-4-prop-2-enoyl-piperazin-1-yl]pyrido[2,3-d]pyrimidin-2-one] |  |  | > 7.5 µM | 0.177 µM | 
9 | C=CC(=O)N1C[C@H](C)N(c2nc(=O)n(-c3c(CC)ccnc3C(C)C)c3nc(-c4ccccc4F)c(Cl)cc23)C[C@H]1C [Example 55-58, 6-Chloro-4-[(2S,5R)-2,5-dimethyl-4-prop-2-enoyl-piperazin-1-yl]-l-(4-ethyl-2-isopropyl-3-pyridyl)-7-(2-fluorophenyl)pyrido[2,3-d]pyrimidin-2-one] | > 7.5 µM | 0.056 µM |  |  | 
10 | C=CC(=O)N1C[C@H](C)N(c2nc(=O)n(-c3c(C(C)C)ccnc3C(C)C)c3nc(-c4ccccc4F)c(Cl)cc23)C[C@H]1C [Example 102-3, 6-Chloro-1-(2,4-diisopropyl-3-pyridyl)-4-[(2S,5R)-2,5-dimethyl-4-prop-2-enoyl-piperazin-1-yl]-7-(2-fluorophenyl) pyrido[2,3-d]pyrimidin-2-one] | > 7.5 µM |  |  | 0.032 µM | 
11 | C=CC(=O)N1C[C@H](C)N(c2nc(=O)n(-c3c(C(C)C)ccnc3C(C)C)c3nc(-c4ccccc4F)c(Cl)cc23)C[C@H]1C [Example 124-1, 6-Chloro-1-(2,4-diisopropyl-3-pyridyl)-4-[(2S,5R)-2,5-dimethyl-4-prop-2-enoyl-piperazin-1-yl]-7-(2-fluorophenyl)pyrido[2,3-d]pyrimidin-2-one] |  |  | > 7.5 µM | 0.024 µM | 
12 | C=CC(=O)N1C[C@H](C)N(c2nc(=O)n(-c3c(C(C)C)ccnc3C(C)C)c3nc(-c4ccccc4C(C)C)c(Cl)cc23)C[C@H]1C [Example 124-8, 6-Chloro-1-(2,4-diisopropyl-3-pyridyl)-4-[(2S,5R)-2,5-dimethyl-4-prop-2-enoyl-piperazin-1-yl]-7-(2-isopropylphenyl)pyrido[2,3-d]pyrimidin-2-one] | 6.36 µM | 0.24 µM |  |  | 
13 | C=CC(=O)N1C[C@H](C)N(c2nc(=O)n(-c3c(C(C)C)nc(CN(C)C)nc3C(C)C)c3nc(-c4ccccc4F)c(Cl)cc23)C[C@H]1C [Example 160, 4-((2S,5R)-4-Acryloyl-2,5-dimethylpiperazin-1-yl)-6-chloro-1-(2-((dimethylamino)methyl)-4,6-diisopropylpyrimidin-5-yl)-7-(2-fluorophenyl)pyrido[2,3-d]pyrimidin-2(1H)-one] |  |  |  |  | IC50 ([1]; Homo sapiens, A549, 2 h): > 7.5 µM; IC50 ([2]; Homo sapiens, MIA PaCa-2, 2 h): 0.058 µM

Continued, in another order:

Row | IC50 [1, 4] | IC50 [2, 5] | IC50 [1, 6] | IC50 [2, 7] | SMILES | also measured
14 | 5.25 µM | 0.395 µM |  |  | C=CC(=O)N1C[C@H](C)N(c2nc(=O)n(-c3c(C(C)C)cccc3C(C)C)c3nc(-c4ccccc4F)c(Cl)cc23)C[C@H]1C [Example 102-1, 4-((2S,5R)-4-Acryloyl-2,5-dimethylpiperazin-1-yl)-6-chloro-1-(2,6-diisopropylphenyl)-7-(2-fluorophenyl)pyrido[2,3-d]pyrimidin-2(1H)-one] | 
15 | 4.73 µM | 0.262 µM |  |  | C=CC(=O)N1C[C@H](C)N(c2nc(=O)n(-c3c(C(C)C)cc(Br)nc3C(C)C)c3nc(-c4ccccc4F)c(Cl)cc23)C[C@H]1C [Example 102-4, 1-(6-Bromo-2,4-diisopropyl-3-pyridyl)-6-chloro-4-[(2S,5R)-2,5-dimethyl-4-prop-2-enoyl-piperazin-1-yl]-7-(2-fluorophenyl) pyrido[2,3-d]pyrimidin-2-one] | 
16 | > 7.5 µM | 0.093 µM |  |  | C=CC(=O)N1C[C@H](C)N(c2nc(=O)n(-c3c(C(C)C)ccnc3C(C)C)c3nc(-c4ccccc4)c(Cl)cc23)C[C@H]1C [Example 124-7, 6-Chloro-1-(2,4-diisopropyl-3-pyridyl)-4-[(2S,5R)-2,5-dimethyl-4-prop-2-enoyl-piperazin-1-yl]-7-phenyl-pyrido[2,3-d]pyrimidin-2-one] | 

From patent US11285156B2, “Substituted piperazines as KRAS G12C inhibitors” (Amgen Inc., priority 2018, dated 2022)
